One experiment concerns P815 cells (mastocytoma). The experiment is described as follows: 3H-Thymidine Incorporation, P815. The note with it: Mus musculus, read-out: 3H-Thymidine Incorporation (DNA Synthesis) Inhibition (%). It counts as cell-based. From the text: (§1) 2) The ^3 H-Thymidine Incorporation Test as described by Ju, S. T., Dorf, M. E. J. Immunol. 1985, 134, 3722. This test was used for monitoring cellular proliferation by monitoring DNA synthesis. The results are expressed as percent ^3 H-thymidine incorporation relative to an untreated control:
(§2) [% ^3 H-thymidine incorporation]=[cpm agent treated cells]/[cpm
(§3) where cpm=counts per minute. Treatments resulting in [% ^3 H-thymidine incorporation] of <50% are considered active.
(§4) The ^3 H-thymidine incorporation assay therefore measures the amount of DNA synthesis when the cells are in the "S" phase of the cell cycle, and is used to assess cell proliferation. Cancer cells, which have a very rapid cell cycle turnover, normally incorporate large amounts of tritium (^3 H) unless inhibited by an exogenous agent. […] While the trypan blue dye exclusion test is an indicator of cell death, the ^3 H-thymidine incorporation test indicates a cytostatic status (not necessarily cytotoxic) of the cell. As previously noted, this latter test was the primary screen used to guide the isolation to the active agent.
For orientation: Incorporation of labelled thymidine or its analogues reports DNA synthesis.

The subject of experiment [1] is CT26 cells (colon adenocarcinoma). Nature of the experiment: 3H-Thymidine Incorporation, CT26. The format is cell-based. The note with it: Mus musculus, read-out: 3H-Thymidine Incorporation (DNA Synthesis) Inhibition (%).
Excerpt: as §1, §2, §3, §4

For experiment [2], the system named is BW8767 cells (BW resistant mutant). The experiment is described as follows: 3H-Thymidine Incorporation, BW8767. The format is cell-based. The note with it: Mus musculus, read-out: 3H-Thymidine Incorporation (DNA Synthesis) Inhibition (%).
Excerpt: as §1, §2, §3, §4
The final in vitro assays performed with the preferred purified active agent were intended to examine the scope of the activity in the trypan blue assay against a wider range of tumor cell lines (Tables 10 and 11). These cell lines included a […] lymphoma BW8767, a BW mutant which is more resistant than the BW cell lines used in other assays, as evidenced by the results in Tables 10 and 11.

In experiment [3] the test system is CT26 colon adenocarcinoma cells. Nature of the experiment: Lung metastases of CT26 in BALB/C mice, 3rd study. It counts as in vivo. As to conditions: day 5; 5 μg/g mouse. The method, then: The in vivo activity of the active agent was assessed against two tumor cell types injected into mice: CT26 and Ehrlich Ascites (EAT) tumor cell lines. The protocols of the "National Cancer Institute, Drug Research and Development Division of Cancer Treatment, Instruction 14, Screening Data Summary Interpretation and Outline of Current Screen" were followed.
In a subsequent experiment, mice that had been implanted with CT26 cells as above were treated on day 5 with the solid residue from the evaporation of CsA (100 μg/g mouse), and with the preferred purified active agent 11β,13-dihydrolactucin (5 μg/g mouse).

Each structure is given as a SMILES string.

In the case of `CC1=C2C(=O)C=C(CO)[C@@H]2[C@H]2OC(=O)[C@@H](C)[C@@H]2[C@@H](O)C1` [11β,13-dihydrolactucin, 3,6-dimethyl-4-hydroxy-9-hydroxymethyl-3,3a,4,5,9a,9b-hexahydroazuleno[4,5-b]furan-2,7-dione], the inhibition at 0.1 µg/mL (in the experiment with P815 cells (mastocytoma) (0.1 μg/mL); in experiment [1] (0.1 μg/mL); in experiment [2] (0.1 μg/mL)) was 100% each time. For the same compound, the inhibition at 0.5 µg/mL with P815 cells (mastocytoma) (0.5 μg/mL) was determined as 100%; in experiment [1] (0.5 μg/mL), 50%; in experiment [2] (0.5 μg/mL) it was 100%. In addition, the inhibition at 1 µg/mL with P815 cells (mastocytoma) (1.0 μg/mL) came to 50%; in experiment [1] (1.0 μg/mL), 5%; in experiment [2] (1.0 μg/mL), 80%. The values for the inhibition at 10 µg/mL (in the experiment on P815 cells (mastocytoma) (10 μg/mL); in experiment [1] (10 μg/mL); in experiment [2] (10 μg/mL)) were 36%, 1% and 60%, respectively. Moreover, the “Number of Metastases (mean ± S.D.)” value in experiment [3] turned out to be 0.33 ± 0.33.

Source of the values: patent US5663196A, “Methods for treating neoplastic disorders” (Boston University, priority 1993, dated 1997).
